The test addresses T1, FH (富马酸脱氢酶) (Homo sapiens, UniProt P07954).
T1 construct: endogenous protein in desalted HeLa cell lysate, native, no tag
T1 sequence (P07954 45-510): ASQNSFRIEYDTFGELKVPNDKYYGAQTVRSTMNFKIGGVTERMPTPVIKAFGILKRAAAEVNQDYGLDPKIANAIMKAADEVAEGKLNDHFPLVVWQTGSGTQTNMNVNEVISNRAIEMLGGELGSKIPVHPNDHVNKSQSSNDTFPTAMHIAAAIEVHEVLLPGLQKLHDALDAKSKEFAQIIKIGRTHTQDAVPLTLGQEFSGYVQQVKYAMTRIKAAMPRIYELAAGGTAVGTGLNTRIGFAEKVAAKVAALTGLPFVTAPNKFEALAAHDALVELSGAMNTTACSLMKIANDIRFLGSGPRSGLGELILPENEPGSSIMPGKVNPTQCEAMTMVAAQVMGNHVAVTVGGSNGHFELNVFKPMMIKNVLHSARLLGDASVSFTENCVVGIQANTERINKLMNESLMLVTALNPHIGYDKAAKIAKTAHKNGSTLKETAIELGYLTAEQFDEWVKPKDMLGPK
As to the kind of experiment: matrix thermal shift assay (mTSA), DIA proteomics, dose-response fit. The format is biochemical. Conditions: desalted HeLa lysate in PBS, endogenous metabolites removed, 50 min room temperature, then 52 ℃ 3 min; 0.004-2 mmol/L ligand; thermal stabilisation; only four ligand concentrations; read-out: 亲和力 (EC50).

The structures appear in SMILES notation.

Broadly, the EC50 is the midpoint of the concentration-response curve. On to `O=C(O)/C=C/C(=O)O` [富马酸], for which the EC50 was 548 µM.

These data come from paper PMC11224940, “矩阵热转移技术鉴定有机酸类代谢物的结合蛋白质” (Chinese Journal of Chromatography, 2024).
